# Source: US20260217701A1, “SELECTIVE BET INHIBITORS AND USES THEREOF” (Tay Therapeutics Limited, priority 2022, published 2026)
# Read-outs that look alike come from different tables or passages of the source.
# Experiment: Rat PK study #3 (ABBV-744 IV 1 mg/kg and PO 5 mg/kg)
# Format: in vivo, SD rats
# Settings: male, Sprague-Dawley, rat, plasma, SD rats, DMSO/PEG-400/Milli-Q water formulation; for C0: read-out: C0; for MRT inf: read-out: MRTInf_obs; for Tmax: read-out: Tmax
# Procedure: For the third rat pharmacokinetic study, the pharmacokinetics of ABBV-744 were assessed in male SD rats for comparison to Compound A. ABBV-744 was prepared in a formulation of 5% DMSO, 40% PEG-400, and 55% Milli-Q water (see Table 2D for formulation) and delivered to animals orally (PO) at a dose of 5 mg/kg, or intravenously (IV) at a dose of 1 mg/kg. Animals in each group (n=3) were then monitored over a 24-hour period.
# Blood samples (~0.2 mL) were collected according to a schedule (IV administration: 0.033, 0.083, 0.25, 0.5, 1, 2, 4, and 8 h following the initial dosing; PO administration: 0.083, 0.25, 0.5, 1, 2, 4, 8, and 24 h following the initial dosing) by jugular vein by cannulation except for the dosing vein (for IV group), and EDTA-K2 was used as anticoagulant. Within 30 minutes of collection, the samples were centrifuged at approximately 4000 times g-force for 5 minutes at 4° C. to obtain blood plasma. The plasma samples were immediately divided into two aliquots (~75 µL each), transferred to a cryogenic vial, and stored in a freezer at −75±15° C. prior to analysis.
# The concentration of ABBV-744 in plasma samples was determined by liquid chromatography-mass spectrometry (LC-MS/MS) using a Shimadzu HPLC(DGU-405; LC-40D XS CN; SIL-40C XSCN; Plate Changer CN; CTO-40C CN; and CBM-40 CN) and an AB API 5500+LC/MS/MS instrument. Samples were analyzed on an Agilent Poroshell Bonus RP 2.7 μm (50×2.1 mm) column. Solution A in the mobile phase was 95% water (0.1% formic acid) and solution B was 95% acetonitrile in water (0.1% formic acid), injection volume was 6 μL, and flow rate was 0.6 mL/min.
# To prepare samples for analysis, serial concentrations were prepared by diluting the stock solution of analyte with a 50% acetonitrile in water solution. 5 μL working solutions (5, 10, 20, 50, 100, 500, 1000, 5000, and 10000 ng/mL) were added to 50 μL of the blank SD rat plasma to achieve calibration standards of ~0.5 to 1000 ng/ml (0.5, 1, 2, 5, 10, 50, 100, 500, and 1000 ng/ml) in a total volume of 55 μL. Five quality control samples at 1 ng/ml, 2 ng/ml, 5 ng/ml, 50 ng/mL, and 800 ng/ml for plasma were prepared independently of those used for the calibration curves. These QC samples were prepared on the day of analysis in the same way as calibration standards.
# 55 μL of standards, 55 μL of QC samples and 55 μL of unknown samples (50 μL of unknown rat plasma with 5 µL of blank solution) were added to 200 µL of acetonitrile containing IS mixture (verapamil) for precipitating protein respectively. The samples were then vortexed for 30 s. After centrifugation at 4° C., 3900 rpm for 15 min, the supernatant was diluted 3 times with water. 6 μL of diluted supernatant was injected into the LC/MS/MS system for quantitative analysis.
# [1] = iv, 1 mg/kg, IV 1 mg/kg, individual animals
# [2] = iv, 1 mg/kg, IV 1 mg/kg, mean of 3 animals
# [3] = po, 5 mg/kg, PO 5 mg/kg, mean of 3 animals
structure (smiles),measurement,setting,value
CCNC(=O)c1cc2c(-c3cc(C(C)(C)O)ccc3Oc3c(C)cc(F)cc3C)cn(C)c(=O)c2[nH]1 [ABBV-744],concentration at 0.083 h,[1],351 ng/mL
same,concentration at 0.083 h,[2],337 ng/mL
same,concentration at 0.25 h,[1],248 ng/mL
same,concentration at 0.25 h,[2],268 ng/mL
same,concentration at 0.5 h,[1],191 ng/mL
same,concentration at 0.5 h,[2],203 ng/mL
same,concentration at 1 h,[1],158 ng/mL
same,concentration at 1 h,[2],154 ng/mL
same,concentration at 2 h,[1],103 ng/mL
same,concentration at 2 h,[2],110 ng/mL
same,concentration at 4 h,[1],48 ng/mL
same,concentration at 4 h,[2],52.9 ng/mL
same,concentration at 8 h,[1],12.6 ng/mL
same,concentration at 8 h,[2],15.3 ng/mL
same,AUC(0-inf),[1],669 ng·h/mL
same,AUC(0-t),[1],633 ng·h/mL
same,half-life,[1],1.99 h
same,C0,[1],580 ng/mL
same,MRT inf,[1],2.47 h
same,AUC(0-inf),[2],716 ng·h/mL
same,AUC(0-t),[2],668 ng·h/mL
same,half-life,[2],2.12 h
same,C0,[2],613 ng/mL
same,MRT inf,[2],2.65 h
same,concentration at 0.083 h,[3],1.61 ng/mL
same,concentration at 0.25 h,[3],19.3 ng/mL
same,concentration at 0.5 h,[3],43 ng/mL
same,concentration at 1 h,[3],59 ng/mL
same,concentration at 2 h,[3],89 ng/mL
same,concentration at 4 h,[3],127 ng/mL
same,concentration at 8 h,[3],113 ng/mL
same,concentration at 24 h,"po, 5 mg/kg, PO 5 mg/kg, 24 h, mean of 3 animals",2.17 ng/mL
same,Tmax,"po, 5 mg/kg, PO 5 mg/kg, individual animals",8 h
same,AUC(0-t),[3],1730 ng·h/mL
same,Cmax,"po, 5 mg/kg, PO 5 mg/kg, mean of 3 animals, read-out: Cmax",132 ng/mL
same,Tmax,[3],5.33 h
